Assay results: patent US10500179B2, “Glycine for use in tolerance induction in allergic patients” (N. V. Nutricia, priority 2015, dated 2019)

Key:
[1] = system: Female C3H/HeOuJ mice sensitized against bovine whey protein; details: oral gavage 50 or 100 mg/mouse 24 and 4 hours before sensitization
RBL-2H3 cells = details: glycine concentration series from 500 μg/ml, 20 hours incubation, concentration dependent
Procedure: RBL-2H3 cells were sensitized by 100 ng/ml mouse IgE α-dinitrophenyl in culture medium (DMEM with 10% FBS and 1% penicillin/[…]) and plate out 100 μl/well in a 96-well flat bottom plate. After 18 hrs of culturing at 37° C. with 5% CO2, the cells were washed 4 times with 200 μl Tyrode's buffer (130 mM NaCl, […], 1.4 mM CaCl2, 1 mM MgCl2, 5.6 mM glucose, 10 mM HEPES, and 0.1% bovine serum albumin in distilled water, pH 7.4). 25 μl glycine in a concentration series starting form 500 μg/ml and diluted 1:1 in Tyrode's buffer (component), 25 μl Tyrode's buffer (controls) or 25 μl quercetin 100 μM (positive control) were added to the cells. 25 μl of DNP-BSA (100 ng/ml) and 50 μl Tyrode's buffer were added to each component well. After 20 hours incubation at 37° C. with 5% CO2 90 μl of the cells supernatant was collected and stored at −80° C. for cytokine analysis by multiplex bead immunoassay.

[2] = system: human peripheral blood mononuclear cells (PBMCs); assay: LPS induced TNF-α synthesis by human PBMCs (ELISA); format: cell-based; details: FIG. 3
Excerpt: The next experiment done by the inventor relates to the question whether amino acids are able to enhance immune effects of free glycine. To investigate this, human peripheral blood mononuclear cells (PBMCs) were stimulated with lipopolysaccharide (LPS) in the presence of free glycine in combination with different levels of free glutamine In short: Human PBMCs were obtained from buffy coats supplied by the blood bank and prepared by Ficoll gradient centrifugation according to standard methods. The recovered PBMCs were washed with PBS and cultured in RPMI-1640 containing, penicillin, streptomycin and 5% Fetal call serum (FCS), 1.5E5 cells/well (96-wells culture plate). The cells were stimulated with LPS (E. coli, 055:B5, 10 ng/ml) for 20 hr after 1 hr pre-incubation with different levels of glycine in combination with different levels of glutamine. The tested levels of glycine and glutamine were also tested separately. TNF-α levels were detected in the supernatant of the cells using an ELISA kit.

NCC(=O)O [Glycine, glycine]
allergic skin response (ear swelling) after intradermal whey injection ([1]; effect concentration dependent, FIG. 2A): inhibits the allergy development | mMCP1 release (by intestinal mast cells) after an oral allergen challenge ([1]; serum one hour after 50 mg whey oral challenge, FIG. 2B): inhibits allergy development | production of whey-specific IgE ([1]; serum, ELISA, FIG. 2C): inhibits | crosslinking induced TNFα production (RBL-2H3 cells; FIG. 1A): inhibits | crosslinking induced IL-4 production (RBL-2H3 cells; FIG. 1B): inhibits | crosslinking induced IL-13 production (RBL-2H3 cells; FIG. 1C): inhibits | LPS induced TNF-α synthesis by PBMCs ([2]; LPS 10 ng/ml for 20 hr after 1 hr pre-incubation): inhibited

NC(=O)CC[C@H](N)C(=O)O [glutamine]
effect of glutamine on glycine inhibition of LPS induced TNF-α synthesis ([2]; glutamine combined with glycine at specific ratios, LPS 10 ng/ml 20 hr): enhanced this effect synergistically
